According to patent publication US7879315B2, “Agent for dissolving dental calculi and dental caries” (Showa Yakuhin Kako Co., Ltd., priority 2002, dated 2011):

Assay: Dissolution of dental calculus by immersion (weight after treatment)

O=C(O)CC(O)(CC(=O)O)C(=O)O [citric acid]
weight of dental calculus after the treatment (1.3 mg calculus immersed 13 minutes in 1 ml of 10% aqueous solution): 0.65 mg

O=C([O-])CN(CCN(CC(=O)[O-])CC(=O)O)CC(=O)O.[Na+].[Na+] [disodium edetate]
weight of dental calculus after the treatment (0.50 mg calculus immersed 44 minutes in 1 ml of 14.3% solution): 0.25 mg

O=C(O)CO [glycolic acid]
weight of dental calculus after the treatment (0.9 mg calculus immersed 9 minutes in 1 ml of 10% aqueous solution): 0.5 mg

O=C(O)CC(O)C(=O)O (stereo not shown) [malic acid]
weight of dental calculus after the treatment (1.2 mg calculus immersed 13 minutes in 1 ml of 10% aqueous solution): 0.6 mg

O=P(O)(O)O [phosphoric acid]
weight of dental calculus after the treatment (1.2 mg calculus immersed 7 minutes and 30 seconds in 1 ml of 10% aqueous solution): 0.6 mg
weight of dental calculus after the treatment (1.4 mg calculus immersed 8 minutes and 30 seconds in 1 ml of 2% aqueous solution): 0.7 mg

O=P(O)(O)O[C@H]1[C@H](OP(=O)(O)O)[C@@H](OP(=O)(O)O)[C@H](OP(=O)(O)O)[C@@H](OP(=O)(O)O)[C@H]1OP(=O)(O)O [phytic acid]
weight of dental calculus after the treatment (3.0 mg calculus immersed 5 minutes in 1 ml aqueous solution containing 0.5 g phytic acid (15% aqueous solution)): 2.6 mg
weight of dental calculus after the treatment (3.0 mg calculus immersed 10 minutes in 1 ml aqueous solution containing 0.5 g phytic acid (15% aqueous solution)): 2.1 mg

O=P(O)(O)OP(=O)(O)O [pyrophosphoric acid]
weight of dental calculus after the treatment (2.2 mg calculus immersed 7 minutes in 1 ml of 10% aqueous solution): 1.1 mg

polyphosphoric acid
weight of dental calculus after the treatment (1.5 mg calculus immersed 7 minutes and 30 seconds in 1 ml of 10% aqueous solution): 0.7 mg
